Experiment [1] addresses T1, Myeloperoxidase (Homo sapiens) (UniProt P05164).
T1 sequence (whole entry): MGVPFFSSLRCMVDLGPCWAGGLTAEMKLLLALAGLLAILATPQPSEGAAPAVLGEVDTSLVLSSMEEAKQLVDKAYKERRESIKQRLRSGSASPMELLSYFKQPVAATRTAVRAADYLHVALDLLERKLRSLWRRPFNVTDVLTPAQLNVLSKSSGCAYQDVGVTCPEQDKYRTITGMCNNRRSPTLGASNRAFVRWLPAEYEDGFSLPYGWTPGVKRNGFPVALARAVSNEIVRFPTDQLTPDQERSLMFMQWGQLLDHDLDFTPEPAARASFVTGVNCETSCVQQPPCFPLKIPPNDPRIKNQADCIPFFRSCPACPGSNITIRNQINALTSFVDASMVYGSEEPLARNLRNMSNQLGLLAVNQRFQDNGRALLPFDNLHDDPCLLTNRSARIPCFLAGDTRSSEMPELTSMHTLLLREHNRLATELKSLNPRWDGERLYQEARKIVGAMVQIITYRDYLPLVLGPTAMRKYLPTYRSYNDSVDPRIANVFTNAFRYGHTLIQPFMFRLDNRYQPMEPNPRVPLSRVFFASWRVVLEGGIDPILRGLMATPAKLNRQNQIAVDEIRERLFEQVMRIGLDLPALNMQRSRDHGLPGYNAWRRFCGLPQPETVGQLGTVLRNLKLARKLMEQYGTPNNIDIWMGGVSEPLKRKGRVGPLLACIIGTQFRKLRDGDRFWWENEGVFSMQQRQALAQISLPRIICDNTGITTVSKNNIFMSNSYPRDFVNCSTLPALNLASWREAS
As to the kind of experiment: Inhibition of human MPO using taurine as substrate assessed as reduction in substrate chlorination at 20 uM incubated for 30 mins by taurine-chloramine assay relative to control.

The target of experiment [2] is T2, Myeloperoxidase (Homo sapiens, UniProt P05164).
T2 sequence (P05164 whole entry): T1 sequence (whole entry)
As to the kind of experiment: Inhibition of human MPO using taurine as substrate assessed as reduction in substrate chlorination incubated for 30 mins by taurine-chloramine assay.

Experiment [3] concerns the target T1, Myeloperoxidase (Homo sapiens). As to the kind of experiment: Inhibition of human MPO peroxidase activity at 100 uM incubated in presence of H2O2 by amplex red assay relative to control.
The target in experiment [4] is T2, Myeloperoxidase. As to the kind of experiment: Inhibition of human MPO peroxidase activity incubated in presence of H2O2 by amplex red assay.
A short description of experiment [5]: Antioxidant activity assessed as HOCl scavenging activity at 100 uM incubated for 10 mins in presence of TNB and taurine by absorbance based assay relative to control. The experiment is classed as functional.

In general, inhibition refers to the change of the read-out against control, counted positive when it falls. One may read the IC50 as the concentration needed to halve the response being measured.

In the case of `O=C(CSc1nc2ccccc2[nH]1)Nc1ccccc1`, the inhibition in experiment [1] was 50%.
On the same count and under the same terms, the result for `CCOC(=O)Cn1c(Cl)nc2ccccc21` reads 33.3%; that for `COc1cc(NC(=O)Cn2c(Cl)nc3ccccc32)cc(OC)c1OC`, 35.7%; that for `O=C(Cn1c(Cl)nc2ccccc21)NCc1ccccc1`, 24.9%.
Still for that read-out and setting: then `O=C(Cn1c(Cl)nc2ccccc21)Nc1ccccc1[N+](=O)[O-]`, with 31.8%; and `O=C(Cn1c(=S)[nH]c2ccccc21)Nc1cccc([N+](=O)[O-])c1`, with 61.9%.
On to `NNC(=O)Cn1c(=S)[nH]c2ccccc21`, for which the inhibition was determined as 93.2% in experiment [1] and 71% in experiment [3]. Besides, the concentration for half-maximal inhibition (IC50) at Myeloperoxidase [2] worked out at 0.39 µM; at Myeloperoxidase [4], 82.7 µM.
As to `O=C(Cn1c(Cl)nc2ccccc21)N1CCOCC1`, in experiment [1], the inhibition came out at 32.7%.
Still for that read-out and setting: then `O=C(CSc1nc2ccccc2[nH]1)Nc1ccccc1Cl`, with 54.4%.
For the compound `O=C(Cn1c(=S)[nH]c2ccccc21)NO`, the inhibition in experiment [1] turned out to be 51.2%.
`O=C(Cn1c(=S)[nH]c2ccccc21)NCc1ccccc1`: the inhibition in experiment [1] turned out to be 95.3%; in experiment [3], 53.3%. In addition, the concentration for half-maximal inhibition (IC50) came out at 4.33 µM on Myeloperoxidase [2] and 97.3 µM at Myeloperoxidase [4].
With `COc1ccc(NC(=O)CSc2nc3ccccc3[nH]2)cc1`, the inhibition in experiment [1] is 50%.
The same measure, in the same setting: the result for `CCOC(=O)Cn1c(=S)[nH]c2ccccc21` reads 51.3%.
Take `COc1cccc(NC(=O)CSc2nc3ccccc3[nH]2)c1`: the inhibition in experiment [1] is 61.4%.
Same read-out and setting: then `O=C(Cn1c(=S)[nH]c2ccccc21)N1CCOCC1`, with 52.2%.
Same read-out and setting: then `Cc1cccc(NC(=O)Cn2c(Cl)nc3ccccc32)c1`, with 34.8%; and `COc1ccccc1NC(=O)Cn1c(Cl)nc2ccccc21`, with 39.3%.
In the case of `Cc1cccc(NC(=O)Cn2c(=S)[nH]c3ccccc32)c1`, the inhibition amounted to 91.4% in experiment [1] and 26.7% in experiment [3]. The half-maximal inhibitory concentration (IC50) on Myeloperoxidase [2] was determined as 3.86 µM. Also, in experiment [5], the Activity is 6.79%.
In the case of `Cc1cccc(NC(=O)CSc2nc3ccccc3[nH]2)c1`, the inhibition came to 92.5% in experiment [1] and 4.3% in experiment [3]. At Myeloperoxidase [2], the half-inhibitory concentration (IC50) is 6.41 µM.
Regarding `COc1cc(NC(=O)CSc2nc3ccccc3[nH]2)cc(OC)c1OC`, the inhibition in experiment [1] came out at 68.9%.
Still for that read-out and setting: then `O=C(Cn1c(Cl)nc2ccccc21)N1CCCCC1`, with 29.1%.
Consider `O=C(Cn1c(Cl)nc2ccccc21)Nc1ccccc1`, for which the inhibition in experiment [1] amounted to 27.9%.
As to `O=C(CSc1nc2ccccc2[nH]1)N1CCOCC1`, the inhibition in experiment [1] was determined as 35.9%.
For the compound `O=C(Cn1c(=S)[nH]c2ccccc21)Nc1ccc([N+](=O)[O-])cc1`, the inhibition in experiment [1] worked out at 61.4%.
Take `COc1ccccc1NC(=O)Cn1c(=S)[nH]c2ccccc21`: the inhibition in experiment [1] came to 94.3%; in experiment [3], 19.1%. Further, the 50% inhibitory concentration (IC50) at Myeloperoxidase [2] was found to be 3.72 µM. Besides, in experiment [5], the Activity was determined as 8.77%.
In the case of `COc1ccc(NC(=O)Cn2c(Cl)nc3ccccc32)cc1`, the inhibition in experiment [1] stood at 36.9%.
Turning to `O=C(Cn1c(=S)[nH]c2ccccc21)Nc1ccccc1Cl`, the inhibition in experiment [1] was 89.4%; in experiment [3] it was 47.6%. The half-maximal inhibitory concentration (IC50) at Myeloperoxidase [2] is 6.67 µM. The Activity in experiment [5] is 5.47%.
`O=C(Cn1c(=S)[nH]c2ccccc21)N1CCCCC1`: the inhibition in experiment [1] was 58.2%.
As to `Cc1ccc(NC(=O)Cn2c(Cl)nc3ccccc32)cc1`, the inhibition in experiment [1] came to 36.5%.
For `O=C(Cn1c(=S)[nH]c2ccccc21)Nc1ccccc1[N+](=O)[O-]`, the inhibition came out at 70.2% in experiment [1] and 22.6% in experiment [3]. Besides, on Myeloperoxidase [2], the IC50 turned out to be 5.63 µM.
With `Cc1ccccc1NC(=O)CSc1nc2ccccc2[nH]1`, in experiment [1], the inhibition was found to be 44.9%.
Still for that read-out and setting: the result for `O=C(Cn1c(Cl)nc2ccccc21)Nc1ccc([N+](=O)[O-])cc1` reads 54%; that for `O=C(Cn1c(Cl)nc2ccccc21)Nc1cccc(Cl)c1`, 67.8%.
The same measure, in the same setting: the result for `O=C(CSc1nc2ccccc2[nH]1)Nc1ccc([N+](=O)[O-])cc1` reads 62.1%.
On the same count and under the same terms, the result for `COc1cccc(NC(=O)Cn2c(Cl)nc3ccccc32)c1` reads 46.6%; that for `O=C(CSc1nc2ccccc2[nH]1)Nc1cccc([N+](=O)[O-])c1`, 62.3%.
Take `O=C(Cn1c(=S)[nH]c2ccccc21)Nc1ccccc1`: the inhibition in experiment [1] amounted to 91.9%; in experiment [3], 57.5%. In addition, the half-maximal inhibitory concentration (IC50) on Myeloperoxidase [2] was 5.64 µM; at Myeloperoxidase [4], 95.4 µM.
For `O=C(CSc1nc2ccccc2[nH]1)NCc1ccccc1`, the inhibition in experiment [1] came to 63.6%.
On to `COc1ccc(NC(=O)Cn2c(=S)[nH]c3ccccc32)cc1`, for which the values for the inhibition in experiment [1] and in experiment [3] were 81.7% and 30.5%, respectively. Moreover, the half-maximal inhibitory concentration (IC50) on Myeloperoxidase [2] is 4.08 µM. For the same compound, in experiment [5], the Activity was found to be 2.83%.
With `COc1cccc(NC(=O)Cn2c(=S)[nH]c3ccccc32)c1`, the inhibition in experiment [1] worked out at 65.5%.
As for `O=C(Cn1c(Cl)nc2ccccc21)Nc1cccc([N+](=O)[O-])c1`, the inhibition in experiment [1] turned out to be 44%.
Take `Cc1ccccc1NC(=O)Cn1c(=S)[nH]c2ccccc21`: the inhibition in experiment [1] came to 93%; in experiment [3], 24%. Besides, the concentration for half-maximal inhibition (IC50) on Myeloperoxidase [2] is 4.26 µM. In addition, the Activity in experiment [5] is 0.94%.
As for `O=C(Cn1c(Cl)nc2ccccc21)Nc1ccc(Cl)cc1`, the inhibition in experiment [1] turned out to be 63.8%.
Turning to `O=C(Cn1c(=S)[nH]c2ccccc21)Nc1cccc(Cl)c1`, the inhibition came to 75.7% in experiment [1] and 29.8% in experiment [3]. Also, at Myeloperoxidase [2], the IC50 was 9.44 µM. In addition, the Activity in experiment [5] was 1.04%.
Turning to `Cc1ccccc1NC(=O)Cn1c(Cl)nc2ccccc21`, the inhibition in experiment [1] turned out to be 28.5%.
`O=C(Cn1c(Cl)nc2ccccc21)Nc1ccccc1Cl`: the inhibition in experiment [1] came to 21.9%.
As to `O=C(CSc1nc2ccccc2[nH]1)Nc1cccc(Cl)c1`, in experiment [1], the inhibition was determined as 56.1%.
For `O=C(CSc1nc2ccccc2[nH]1)Nc1ccc(Cl)cc1`, the inhibition in experiment [1] came to 52.6%.
`COc1ccccc1NC(=O)CSc1nc2ccccc2[nH]1`: the inhibition was 72.6% in experiment [1] and 0% in experiment [3]. The IC50 at Myeloperoxidase [2] came out at 10.4 µM.
Take `Cc1ccc(NC(=O)Cn2c(S)nc3ccccc32)cc1`: the inhibition in experiment [1] was 41.1%.
On the same count and under the same terms, the result for `O=C(CSc1nc2ccccc2[nH]1)Nc1ccccc1[N+](=O)[O-]` reads 48.5%.
As for `Cc1ccc(NC(=O)CSc2nc3ccccc3[nH]2)cc1`, the inhibition came out at 73% in experiment [1] and 0% in experiment [3]. Further, the IC50 at Myeloperoxidase [2] came out at 8.51 µM.
On to `COc1cc(NC(=O)Cn2c(=S)[nH]c3ccccc32)cc(OC)c1OC`, for which the inhibition in experiment [1] is 62.6%.
In the case of `O=C(Cn1c(=S)[nH]c2ccccc21)Nc1ccc(Cl)cc1`, the results for the inhibition in experiment [1] and in experiment [3] were 85.3% and 21.7%, respectively. Further, the IC50 at Myeloperoxidase [2] amounted to 7.76 µM. Further, in experiment [5], the Activity is 5.85%.
On to `O=C(CSc1nc2ccccc2[nH]1)N1CCCCC1`, for which, in experiment [1], the inhibition was determined as 32%.

Source of the values: ChEMBL document CHEMBL5325408, “Design, synthesis, and biological activity studies on benzimidazole derivatives targeting myeloperoxidase” (Eur J Med Chem, 2023).
